Source: patent publication US9351974B2, “Substituted pteridinones for the treatment of cancer” (OSI Pharmaceuticals, LLC, priority 2011, dated 2016)
pIC50: −log10 of the molar value.

target: T1, His-tagged full-length RSK2 (RPS6KA3) (Homo sapiens, UniProt P51812); experiment: RSK2 Omnia Assay for compound IC50 determination; assay type: biochemical; conditions: ATP 15 μM, n=2, read-out: Mean RSK2 Biochem IC50
T1 construct: His-tagged full-length RSK2 (RPS6KA3, Invitrogen PV3323); His; purchased Invitrogen PV3323
T1 sequence (P51812 whole entry): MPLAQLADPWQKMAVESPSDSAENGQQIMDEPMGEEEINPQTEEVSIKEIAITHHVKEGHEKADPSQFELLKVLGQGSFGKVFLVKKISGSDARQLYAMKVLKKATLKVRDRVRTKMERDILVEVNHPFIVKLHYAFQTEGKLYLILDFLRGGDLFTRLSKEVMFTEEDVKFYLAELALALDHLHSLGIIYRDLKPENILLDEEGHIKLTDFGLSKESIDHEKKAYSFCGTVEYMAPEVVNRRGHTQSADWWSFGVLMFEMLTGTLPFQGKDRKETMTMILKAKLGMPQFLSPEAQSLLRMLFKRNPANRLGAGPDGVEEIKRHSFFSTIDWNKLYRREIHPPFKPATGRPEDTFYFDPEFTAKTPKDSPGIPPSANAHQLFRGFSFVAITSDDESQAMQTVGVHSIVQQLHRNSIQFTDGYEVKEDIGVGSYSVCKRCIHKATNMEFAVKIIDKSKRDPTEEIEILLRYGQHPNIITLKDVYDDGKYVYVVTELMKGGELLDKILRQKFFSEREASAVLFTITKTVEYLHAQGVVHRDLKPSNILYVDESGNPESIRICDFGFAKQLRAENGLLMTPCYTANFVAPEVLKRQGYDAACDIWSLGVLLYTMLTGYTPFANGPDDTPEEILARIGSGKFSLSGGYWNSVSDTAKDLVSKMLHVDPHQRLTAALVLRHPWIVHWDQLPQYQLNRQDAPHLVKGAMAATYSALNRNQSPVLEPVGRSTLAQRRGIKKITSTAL
Summary of the method: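 Continuous fluorescence assay (ex 360/em 485 nm) of SOX-peptide (Omnia ST Peptide 6, 5 μM) phosphorylation with ATP 15 μM (Km 16.3 μM). Enzyme was […], in pH 7.5 HEPES/MgCl2 buffer with 1% DMSO. IC50 came from 11-point threefold dilutions ([…]) by four-parameter fit of initial slopes, in duplicate; Ki by Cheng-Prusoff assuming competitive inhibition.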

Structure (SMILES)	pIC50
C[C@@H]1C(=O)N(c2cccnc2)c2cnc(Nc3cc(F)c4[nH]ncc4c3)nc2N1[C@H]1CC[C@@H](C(F)(F)F)CC1 [compound 255, (7R)-2-[(7-fluoro-1H-indazol-5-yl)amino]-7-methyl-5-(pyridin-3-yl)-8-[cis-4-(trifluoromethyl)cyclohexyl]-7,8-dihydropteridin-6(5H)-one]	≥ 7.00
COc1ccc(N2C(=O)[C@@H](C)N(C3CCOCC3)c3nc(Nc4cc(F)c5[nH]ncc5c4)ncc32)cc1OC [compound 188, (7R)-5-(3,4-dimethoxyphenyl)-2-[(7-fluoro-1H-indazol-5-yl)amino]-7-methyl-8-(tetrahydro-2H-pyran-4-yl)-7,8-dihydropteridin-6(5H)-one]	≥ 7.00
CNS(=O)(=O)c1ccc(N2C(=O)[C@@H](C)N(C3CCCCC3)c3nc(Nc4ccc5[nH]ncc5c4)ncc32)cc1 [Example 37, 4-[(7R)-8-cyclohexyl-2-(1H-indazol-5-ylamino)-7-methyl-6-oxo-7,8-dihydropteridin-5(6H)-yl]-N-methylbenzenesulfonamide]	≥ 7.00
CC(C)Oc1ccc(N2C(=O)[C@@H](C)N([C@H]3CC[C@H](C)CC3)c3nc(Nc4ccc5[nH]c(=O)oc5c4)ncc32)cc1C#N [compound 249, 5-[(7R)-7-methyl-8-(trans-4-methylcyclohexyl)-6-oxo-2-[(2-oxo-2,3-dihydro-1,3-benzoxazol-6-yl)amino]-7,8-dihydropteridin-5(6H)-yl]-2-(propan-2-yloxy)benzonitrile]	≥ 7.00
C[C@@H]1C(=O)N(c2ccc(N3CCOCC3)nc2)c2cnc(Nc3cc(F)c4[nH]ncc4c3)nc2N1C1CCC(C)(C)CC1 [Example 213, (7R)-8-(4,4-dimethylcyclohexyl)-2-[(7-fluoro-1H-indazol-5-yl)amino]-7-methyl-5-[6-(morpholin-4-yl)pyridin-3-yl]-7,8-dihydropteridin-6(5H)-one]	≥ 7.00
C[C@@H]1C(=O)N(c2ccccc2)c2cnc(Nc3ccc4c(c3)CC(=O)N4)nc2N1C1CCCC1 [Example 68, (7R)-8-cyclopentyl-7-methyl-2-[(2-oxo-2,3-dihydro-1H-indol-5-yl)amino]-5-phenyl-7,8-dihydropteridin-6(5H)-one]	≥ 7.00
CC[C@@H]1C(=O)N(c2ccc(OC)c(F)c2)c2cnc(Nc3cc(F)c4[nH]ncc4c3)nc2N1C1CCCCC1 [compound 294, (7R)-8-cyclohexyl-7-ethyl-2-[(7-fluoro-1H-indazol-5-yl)amino]-5-(3-fluoro-4-methoxyphenyl)-7,8-dihydropteridin-6(5H)-one]	≥ 7.00
Cc1n[nH]c2ccc(Nc3ncc4c(n3)N(C3CCCCC3)[C@H](C)C(=O)N4c3cccc(C#N)c3)cc12 [compound 103, 3-[(7R)-8-cyclohexyl-7-methyl-2-[(3-methyl-1H-indazol-5-yl)amino]-6-oxo-7,8-dihydropteridin-5(6H)-yl]benzonitrile]	6.00 to 7.00
COc1cc(N2C(=O)[C@@H](C)N(C3CCCCC3)c3nc(Nc4ccc5[nH]ncc5c4)ncc32)ccc1C [compound 125, (7R)-8-cyclohexyl-2-(1H-indazol-5-ylamino)-5-(3-methoxy-4-methylphenyl)-7-methyl-7,8-dihydropteridin-6(5H)-one]	≥ 7.00
COc1n[nH]c2ccc(Nc3ncc4c(n3)N(C3CCCCC3)[C@H](C)C(=O)N4c3cccc(C#N)c3)cc12 [compound 116, 3-[(7R)-8-cyclohexyl-2-[(3-methoxy-1H-indazol-5-yl)amino]-7-methyl-6-oxo-7,8-dihydropteridin-5(6H)-yl]benzonitrile]	≥ 7.00
CCOc1ccc(N2C(=O)[C@@H](C)N(C3CCOCC3)c3nc(Nc4cc(F)c5[nH]ncc5c4)ncc32)cc1C#N [compound 195, 2-Ethoxy-5-[(7R)-2-[(7-fluoro-1H-indazol-5-yl)amino]-7-methyl-6-oxo-8-(tetrahydro-2H-pyran-4-yl)-7,8-dihydropteridin-5(6H)-yl]benzonitrile]	≥ 7.00
COc1ccc(N2C(=O)[C@@H](C)N(C3CCCCC3)c3nc(NCc4cn[nH]c4)ncc32)cc1OC [compound 163]	< 6.00
C[C@@H]1C(=O)N(c2cccc(C#N)c2)c2cnc(Nc3cc(Cl)c4[nH]ncc4c3)nc2N1C1CCCCC1 [compound 97, 3-[(7R)-2-[(7-chloro-1H-indazol-5-yl)amino]-8-cyclohexyl-7-methyl-6-oxo-7,8-dihydropteridin-5(6H)-yl]benzonitrile]	≥ 7.00
COc1ccc(N2C(=O)[C@@H](C)N([C@H]3CC[C@H](OC)CC3)c3nc(Nc4ccc5[nH]c(=O)oc5c4)ncc32)cc1C#N [compound 235, 2-methoxy-5-[(7R)-8-(trans-4-methoxycyclohexyl)-7-methyl-6-oxo-2-[(2-oxo-2,3-dihydro-1,3-benzoxazol-6-yl)amino]-7,8-dihydropteridin-5(6H)-yl]benzonitrile]	≥ 7.00
N#Cc1cccc(N2C(=O)[C@@H](CF)N(C3CCCC3)c3nc(Nc4ccc5[nH]ncc5c4)ncc32)c1 [Example 222, 3-[(7S)-8-cyclopentyl-7-(fluoromethyl)-2-(1H-indazol-5-ylamino)-6-oxo-7,8-dihydropteridin-5(6H)-yl]benzonitrile]	≥ 7.00
C[C@@H]1C(=O)N(c2cccc(C#N)c2)c2cnc(Nc3ccc4[nH]ncc4n3)nc2N1C1CCCCC1 [compound 167, 3-[(7R)-8-cyclohexyl-7-methyl-6-oxo-2-(1H-pyrazolo[4,3-b]pyridin-5-ylamino)-7,8-dihydropteridin-5(6H)-yl]benzonitrile]	6.00 to 7.00
C[C@@H]1C(=O)N(c2cccc(C#N)c2)c2cnc(Nc3ccc4[nH]ncc4c3F)nc2N1C1CCCC1 [Example 216, 3-[(7R)-8-cyclopentyl-2-[(4-fluoro-1H-indazol-5-yl)amino]-7-methyl-6-oxo-7,8-dihydropteridin-5(6H)-yl]benzonitrile]	≥ 7.00
CC(C)CCN1c2cc(Nc3ccc4[nH]ncc4c3)ncc2N(c2ccccc2)C(=O)C1C (stereo not shown) [Example 310, 7-(1H-indazol-5-ylamino)-2-methyl-1-(3-methylbutyl)-4-phenyl-1,4-dihydropyrido[3,4-b]pyrazin-3(2H)-one]	6.00 to 7.00
C[C@@H]1C(=O)N(c2cccc(F)c2)c2cnc(Nc3ccc4[nH]ncc4c3F)nc2N1C1CCCCC1 [compound 120, (7R)-8-cyclohexyl-2-[(4-fluoro-1H-indazol-5-yl)amino]-5-(3-fluorophenyl)-7-methyl-7,8-dihydropteridin-6(5H)-one]	≥ 7.00
COc1ccc(N2C(=O)[C@@H](C)N(C3CCCCC3)c3nc(Nc4cc(F)c(O)c(F)c4)ncc32)cc1OC [compound 159]	≥ 7.00
COc1ccc(N2C(=O)[C@@H](C)N(CCC(C)C)c3nc(Nc4cc(F)c5[nH]c(=O)oc5c4)ncc32)cc1OC [Example 88, (7R)-5-(3,4-dimethoxyphenyl)-2-[(4-fluoro-2-oxo-2,3-dihydro-1,3-benzoxazol-6-yl)amino]-7-methyl-8-(3-methylbutyl)-7,8-dihydropteridin-6(5H)-one]	≥ 7.00
COc1ccc(N2C(=O)[C@@H](C)N([C@H]3CC[C@H](OC)CC3)c3nc(Nc4cnc5[nH]ncc5c4)ncc32)cc1C#N [compound 234, 2-methoxy-5-[(7R)-8-(trans-4-methoxycyclohexyl)-7-methyl-6-oxo-2-(1H-pyrazolo[3,4-b]pyridin-5-ylamino)-7,8-dihydropteridin-5(6H)-yl]benzonitrile]	≥ 7.00
